Entries after “also recorded” stand apart in the source; their conditions may differ.
Legend:
C57BL/6 female mice = conditions: mouse, in vivo
tetanus toxin = system: tetanus toxin; parameters: species or system mice; conditions: mouse, in vivo
human monocytes = experiment: FACS analysis of human monocytes stimulated with AT1002; format: cell-based; conditions: 18 hours
human macrophages = experiment: FACS analysis of human macrophages stimulated with AT1002; format: cell-based
[1] = AT1002 20 micrograms/ml and 1 microgram/ml

Row | Substance | geometric mean titers of anti-TT IgA in vaginal secretions (C57BL/6 female mice) | geometric mean titers of anti-TT serum IgA (C57BL/6 female mice) | geometric mean titers of anti-TT serum IgG (C57BL/6 female mice) | relatively most effective AT1002 dose (anti-TT serum IgG) (C57BL/6 female mice) [nmol] | protection against tetanus toxin challenge (paralysis and death) (tetanus toxin) | expression of CD80 (B7-1) on monocytes (human monocytes) | expression of CD86 (B7.2) on monocytes (human monocytes) | membrane expression of HLA-DR on monocytes (human monocytes; [1]) | membrane expression of HLA-I on monocytes (human monocytes; [1]) | expression of CD40 on macrophages (human macrophages; 18 hours) | membrane expression of CD86 on macrophages (human macrophages; 18 hours) | membrane expression of HLA-DR on macrophages (human macrophages; 18 hours) | membrane expression of HLA-I on macrophages (human macrophages; 18 hours) | expression of CD80 on macrophages (human macrophages; 18 hours, not reported in the figure) | upregulation of HLA-I and HLA-DR molecules compared with LPS (human macrophages; macrophages, LPS positive control) | range of anti-TT IgG titer (tetanus toxin)
1 | FCIGRL [AT1002] | induces IgA against the co-administered antigen in a mucosal district far from the site of immunization | induces serum IgA against the co-administered antigen | higher as compared to those of animals immunized with TT alone; also recorded: higher than those observed after four doses | 30 | all protected | not upregulated | not upregulated | upregulates | upregulates | upregulates | strongly upregulates | strongly upregulates | strongly upregulates | also upregulated | more efficient than LPS | –
2 | Tetanus toxoid [TT alone] | – | – | – | – | – | – | – | – | – | – | – | – | – | – | – | 256-4,096
